# Test results as given in patent publication US12083093B2, “Composition for preventing or treating cellular senescence-related diseases comprising salinomycin as effective component” (RESEARCH COOPERATION FOUNDATION OF YEUNGNAM UNIVERSITY, priority 2018, dated 2024).
# Experiments:
# [1] = test system: premature senescent renal tubular cells (HK2) by doxorubicin; test: SAβG activity staining, doxorubicin-induced premature senescent HK2 cells; assay type: cell-based, human; details: 100 nM, 4 days; compared to DMSO-treated group; FIG. 6A-6C
# Procedure: (§1) Each cell was treated in a serum-free culture solution containing doxorubicin (0.5 μM) for 4 hours. After washing the cells with a serum-free culture solution, the cells were cultured for 4 days in a culture solution containing 10% FBS, and then cellular aging was confirmed by measuring the level of senescence by staining with senescence-associated beta galactosidase.
# (§2) After each sample was dissolved in DMSO, young cells, replicative senescent cells and senescent cells in which premature aging was induced by treating with doxorubicin were treated with 100 nM salinomycin, 100 nM rapamycin, 100 nM ABT263. After incubation for 4 days in a 37° C., 5% CO2 incubator, the degree of cell survival was confirmed by CCK-8 analysis, the degree of cellular aging was confirmed by senescence-associated β-galactosidase (SAβG) staining, p53 and p16 protein expression analysis.
# The cells were washed with 1× phosphate buffer solution, and fixed with a phosphate buffer solution containing 3.7% (v/v) paraformaldehyde. After adding 1 mg/ml 5-bromo-4-chloro-3-indolyl-β-D-galactoside, 40 mM citric acid-sodium phosphate (pH 6.0), 5 mM potassium ferricyanide, 5 mM potassium ferrocyanide, 150 mM NaCl, and 2 mM MgCl2 solution, it was reacted at 37° C. for 18 hours. It was stained with eosin as a control stain and cells stained blue in the cytoplasm were identified using an optical microscope. […]
# [2] = test system: premature senescent retinal pigmented epithelial cells (ARPE) by doxorubicin; assay type: cell-based, human
# Procedure: as §1
# Cytotoxicity against young and senescent cells was investigated with a lactate dehydrogenase (LDH) activity kit (Dojindo Molecular Technologies Inc.). Young cells (1×10^3 cells/100 μl/well) or senescent cells (2×10^3 cells/100 μl/well) were dispensed into a 96-well plate, and then cultured overnight in a 37° C., 5% CO2 incubator.
# Salinomycin, ABT263 and rapamycin were treated at each concentration, and then incubated for 4 days in a 37° C., 5% CO2 incubator. After transferring the cell culture solution to a 1.5 ml tube, it was centrifuged at 4° C. and 12,000 rpm. 100 μl of the supernatant was dispensed into a 96-well plate, and 100 μl of the LDH measurement solution was added to each well, followed by reaction in a CO2 incubator for 30 minutes. 50 μl of the LDH reaction stop solution was added, and absorbance was measured at 490 nm using a microplate reader. The level of LDH activity was expressed as a relative value based on the absorbance of the control group treated with only DMSO.
# [3] = test system: premature senescent retinal pigmented epithelial cells (ARPE) by doxorubicin; test: CCK-8 cell survival, doxorubicin-induced premature senescent retinal pigmented epithelial cells; assay type: cell-based, human; details: 100 nM, 4 days; compared to DMSO-treated group; FIG. 5A, 5B
# Procedure: as §1, §2
# Young cells (1×10^3 cells/well) or senescent cells (2×10^3 cells/well) were dispensed into a 96-well plate, and cultured overnight in a 37° C., 5% CO2 incubator. Salinomycin, ABT263 and rapamycin were treated at each concentration, and then incubated for 4 days in a 37° C., 5% CO2 incubator. […] Then, the absorbance was measured at 450 nm using a Microplate reader.
# The degree of cell survival was expressed as a relative value for the absorbance of the control group treated with only DMSO as 100%. […]
# [4] = test system: peritoneal fibrosis induced by chlorhexidine gluconate (CHG); test: Peritoneal fibrosis induced by chlorhexidine gluconate (CHG) in mice; assay type: in vivo, C57BL/6J mice; details: compared to DMSO group, FIG. 9C, 9D
# Procedure: Animal experiments were conducted with the approval of the Animal Experimental Ethics Committee of Yeungnam University College of Medicine (YUMC-AEC2018-033). Peritoneal fibrosis mice experiments were performed using a model of peritoneal fibrosis induced by chlorhexidine gluconate (CHG) (Yoshio Y et al., Kidney international. 2004).
# From the 9th day, 2.5 μl of 10 mM salinomycin (Sal group) or 2.5 μl of DMSO (DMSO group) was diluted in 100 μl phosphate buffer solution and intraperitoneally injected at intervals of 2 days.
# As a negative control (NT group), 100 μl of a 15% ethanol phosphate buffer solution was injected intraperitoneally instead of a 0.1% CHG solution. On the 20th day, the mice were sacrificed, the peritoneal tissue was excised, and the tissue was fixed in 4% paraformaldehyde solution.
# The tissue fixed in 10% formalin solution was embedded with paraffin and cut into 4 μm to prepare a tissue sample. After removing paraffin from the tissue sample, hematoxylin-eosin staining, trichrome staining, and PAS staining were performed.
# The degree of fibrosis was measured by analyzing the degree of collagen staining using the i-Solution™ software program (IMT Inc., Canada) after trichrome staining and the degree of cell senescence in tissue samples was investigated by staining lipofuscin with Sudan black B (Viegas M S, et al., European journal of histochemistry: EJH. 2007). […]
# [5] = test system: replicative senescent human fibroblasts (HDF); test: CCK-8 cell survival, replicative senescent human fibroblasts; assay type: cell-based; details: replicative senescent cells, increasing concentration of salinomycin; FIG. 2A, 2D
# Procedure: After dispensing 2×10^5 cells in a 100 mm culture dish, they were cultured in a 37° C., 5% CO2 incubator. When the cells grew to 80-90% in the culture dish, the cells were removed by treatment with trypsin-EDTA, and the number of cells was measured, and the cell population doubling time (PDT) was measured.
# By successively subculturing the cells in the same process as described above, replication aging was induced. PDT of young fibroblasts was 36 hours, PDT of replicative senescent fibroblasts was 12 days, PDT of young vascular endothelial cells was 24 hours, and PDT of replicative senescent vascular endothelial cells was 7 days.
# After each sample was dissolved in DMSO, young cells, replicative senescent cells and senescent cells in which premature aging was induced by treating with doxorubicin were treated with 100 nM salinomycin, 100 nM rapamycin, 100 nM ABT263. […]
# Young cells (1×10^3 cells/well) or senescent cells (2×10^3 cells/well) were dispensed into a 96-well plate, and cultured overnight in a 37° C., 5% CO2 incubator. […] Then, the absorbance was measured at 450 nm using a Microplate reader.
# (§3) The degree of cell survival was expressed as a relative value for the absorbance of the control group treated with only DMSO as 100%.
# young fibroblasts (HDF) = test: CCK-8 cell survival, young human fibroblasts; assay type: cell-based; details: young cells, increasing concentration of salinomycin; FIG. 2A, 2D
# Procedure: as §2
# Young cells (1×10^3 cells/well) or senescent cells (2×10^3 cells/well) were dispensed into a 96-well plate, and cultured overnight in a 37° C., 5% CO2 incubator. Salinomycin, ABT263 and rapamycin were treated at each concentration, and then incubated for 4 days in a 37° C., 5% CO2 incubator. 10 μl of CCK-8 reagent (Dojindo Molecular Technologies Inc., Kumamoto, Japan) was added to each well, and incubated for 2 hours in an incubator. Then, the absorbance was measured at 450 nm using a Microplate reader.
# as §3
smiles,measurement,setting,value
CC[C@@H](C(=O)[C@@H](C)[C@@H](O)[C@H](C)[C@@H]1O[C@@H]([C@@H](CC)C(=O)O)CC[C@@H]1C)[C@H]1O[C@]2(C=C[C@@H](O)[C@]3(CC[C@@](C)([C@H]4CC[C@](O)(CC)[C@H](C)O4)O3)O2)[C@H](C)C[C@@H]1C [salinomycin],SaβG activity,[1],no change
same,cytotoxicity by LDH activity,[2],significantly increased
same,cell survival (CCK-8),[3],significantly (p<0.01) reduced
same,thickness of the peritoneal mesothelial cell layer,[4]; 2.5 μl of 10 mM salinomycin in 100 μl phosphate buffer i.p. at 2-day intervals from 9th day,significantly reduced
same,degree of peritoneal fibrosis,[4]; i.p. at 2-day intervals from 9th day,decreased
same,cell survival (CCK-8),[5],no change
same,cell survival (CCK-8),young fibroblasts (HDF),no change
